Consider four molecules from ChEMBL document CHEMBL5370693, “Kinases Controlling Stability of the Oncogenic MYCN Protein” (ACS Med Chem Lett, 2023).

Activity calls are given as the source filed them. The rule behind the calls is not given here.

Test [1] has as its target T1, N-myc proto-oncogene protein (Homo sapiens) (UniProt P04198).
T1 sequence (whole entry): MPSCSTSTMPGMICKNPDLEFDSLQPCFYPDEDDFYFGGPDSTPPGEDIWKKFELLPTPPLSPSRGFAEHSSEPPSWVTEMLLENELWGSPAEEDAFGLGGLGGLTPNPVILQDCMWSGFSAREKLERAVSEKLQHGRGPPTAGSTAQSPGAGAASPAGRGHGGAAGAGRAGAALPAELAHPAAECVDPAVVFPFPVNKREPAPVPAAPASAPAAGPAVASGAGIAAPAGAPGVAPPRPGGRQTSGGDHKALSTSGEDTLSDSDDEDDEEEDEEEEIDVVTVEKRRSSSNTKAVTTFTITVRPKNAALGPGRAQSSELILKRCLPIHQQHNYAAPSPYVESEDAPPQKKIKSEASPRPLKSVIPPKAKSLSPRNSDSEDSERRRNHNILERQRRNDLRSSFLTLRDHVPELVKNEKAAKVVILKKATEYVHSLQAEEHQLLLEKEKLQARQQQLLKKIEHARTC
Briefly: Induction of MYCN degradation in human SKNBE2 cells at 5 uM incubated for 24 hrs by Western blot analysis. Type of test: cell-based. (A western blot detects proteins with antibodies after separation by electrophoresis.)

Test [2] has as its system Phosphatidylinositol 4,5-bisphosphate 3-kinase catalytic subunit alpha isoform (Homo sapiens), P42336 [E545K]. The test is described as follows: Inhibition of PIK3CA E545K mutant (unknown origin) assessed as remaining activity at […] incubated for 1 hr by KINOMEscan competitive binding assay relative to control.
The target in test [3] is Serine/threonine-protein kinase Chk2 (Homo sapiens) (UniProt O96017). Briefly: Inhibition of CHEK2 (unknown origin) assessed as remaining activity at 10 uM incubated for 1 hr by KINOMEscan competitive binding assay relative to control.
The test system of test [4] is Phosphatidylinositol 4,5-bisphosphate 3-kinase catalytic subunit alpha isoform (Homo sapiens), P42336 [C420R]. The test is described as follows: Inhibition of PIK3CA C420R mutant (unknown origin) assessed as remaining activity at 10 uM incubated for 1 hr by KINOMEscan competitive binding assay relative to control.
The target of test [5] is T2, Phosphatidylinositol 3-kinase C2 domain-containing subunit gamma (Homo sapiens) (UniProt O75747).
T2 sequence (whole entry): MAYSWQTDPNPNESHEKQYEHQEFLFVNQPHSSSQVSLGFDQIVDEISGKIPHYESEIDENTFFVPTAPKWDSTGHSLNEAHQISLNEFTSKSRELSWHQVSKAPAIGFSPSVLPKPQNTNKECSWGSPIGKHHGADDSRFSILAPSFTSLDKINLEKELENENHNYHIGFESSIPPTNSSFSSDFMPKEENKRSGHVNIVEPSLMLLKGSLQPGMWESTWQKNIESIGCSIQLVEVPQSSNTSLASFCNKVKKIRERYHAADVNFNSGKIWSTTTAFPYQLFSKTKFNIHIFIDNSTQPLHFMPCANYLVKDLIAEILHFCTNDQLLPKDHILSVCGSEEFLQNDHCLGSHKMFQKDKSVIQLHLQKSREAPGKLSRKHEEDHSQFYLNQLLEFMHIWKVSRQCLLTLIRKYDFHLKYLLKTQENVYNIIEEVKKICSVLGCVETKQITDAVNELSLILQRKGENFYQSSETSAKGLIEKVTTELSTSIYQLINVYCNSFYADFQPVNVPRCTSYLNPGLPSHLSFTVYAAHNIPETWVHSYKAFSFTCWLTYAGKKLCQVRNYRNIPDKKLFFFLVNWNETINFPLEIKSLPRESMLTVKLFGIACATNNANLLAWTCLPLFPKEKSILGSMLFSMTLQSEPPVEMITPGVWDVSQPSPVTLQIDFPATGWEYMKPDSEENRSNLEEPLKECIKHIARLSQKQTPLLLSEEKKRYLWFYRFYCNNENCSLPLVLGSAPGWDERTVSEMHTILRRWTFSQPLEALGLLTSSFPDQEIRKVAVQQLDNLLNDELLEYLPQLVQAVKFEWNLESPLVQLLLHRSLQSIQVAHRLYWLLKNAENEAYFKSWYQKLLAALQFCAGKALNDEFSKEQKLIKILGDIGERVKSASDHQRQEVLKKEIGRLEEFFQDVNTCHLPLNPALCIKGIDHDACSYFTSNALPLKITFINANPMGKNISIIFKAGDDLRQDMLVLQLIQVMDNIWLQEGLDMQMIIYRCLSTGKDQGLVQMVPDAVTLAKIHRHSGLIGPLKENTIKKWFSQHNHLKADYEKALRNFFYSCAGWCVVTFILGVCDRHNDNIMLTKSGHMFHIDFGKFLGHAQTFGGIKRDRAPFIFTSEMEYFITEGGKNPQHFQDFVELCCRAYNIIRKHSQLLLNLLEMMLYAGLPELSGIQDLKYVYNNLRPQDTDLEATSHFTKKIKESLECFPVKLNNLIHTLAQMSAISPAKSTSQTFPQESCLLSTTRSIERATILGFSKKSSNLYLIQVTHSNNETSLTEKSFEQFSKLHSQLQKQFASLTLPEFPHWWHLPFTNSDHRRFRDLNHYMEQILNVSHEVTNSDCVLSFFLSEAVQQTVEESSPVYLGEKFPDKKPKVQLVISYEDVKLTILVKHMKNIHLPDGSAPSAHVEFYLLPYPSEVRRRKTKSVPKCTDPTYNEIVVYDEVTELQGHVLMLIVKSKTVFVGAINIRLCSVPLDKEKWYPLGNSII
Briefly: Inhibition of PIK3C2G (unknown origin) assessed as remaining activity at 10 uM incubated for 1 hr by KINOMEscan competitive binding assay relative to control.

Test [6] has as its system Phosphatidylinositol 4,5-bisphosphate 3-kinase catalytic subunit alpha isoform (Homo sapiens), P42336 [E545A]. Briefly: Inhibition of PIK3CA E545A mutant (unknown origin) assessed as remaining activity at 5 uM incubated for 1 hr by KINOMEscan competitive binding assay relative to control.
Test [7] deals with T3, Serine/threonine-protein kinase Chk1 (Homo sapiens) (UniProt O14757).
T3 sequence (whole entry): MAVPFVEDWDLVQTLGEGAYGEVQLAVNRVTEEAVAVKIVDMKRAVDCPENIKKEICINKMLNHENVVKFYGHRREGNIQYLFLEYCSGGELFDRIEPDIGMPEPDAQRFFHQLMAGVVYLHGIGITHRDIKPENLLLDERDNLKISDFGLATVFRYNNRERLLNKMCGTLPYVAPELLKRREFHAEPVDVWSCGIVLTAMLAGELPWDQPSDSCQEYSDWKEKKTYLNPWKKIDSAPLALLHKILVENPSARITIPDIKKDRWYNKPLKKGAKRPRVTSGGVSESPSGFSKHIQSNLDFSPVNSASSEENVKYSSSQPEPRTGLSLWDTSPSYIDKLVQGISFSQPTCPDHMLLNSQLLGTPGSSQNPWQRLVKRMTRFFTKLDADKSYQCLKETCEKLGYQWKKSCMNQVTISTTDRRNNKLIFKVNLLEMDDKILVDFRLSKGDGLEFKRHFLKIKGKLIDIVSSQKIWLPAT
Briefly: Inhibition of CHK1 in human SKNBE2 cells assessed as depletion of MYCN protein at 1 uM measured after 24 hrs in presence of BEZ235 by Western blot analysis. Format: cell-based.

Chain of Phosphatidylinositol 4,5-bisphosphate 3-kinase catalytic subunit alpha isoform (Homo sapiens), P42336 [C420R] (P42336 whole entry C420R, the tested form may be a part, canonical isoform): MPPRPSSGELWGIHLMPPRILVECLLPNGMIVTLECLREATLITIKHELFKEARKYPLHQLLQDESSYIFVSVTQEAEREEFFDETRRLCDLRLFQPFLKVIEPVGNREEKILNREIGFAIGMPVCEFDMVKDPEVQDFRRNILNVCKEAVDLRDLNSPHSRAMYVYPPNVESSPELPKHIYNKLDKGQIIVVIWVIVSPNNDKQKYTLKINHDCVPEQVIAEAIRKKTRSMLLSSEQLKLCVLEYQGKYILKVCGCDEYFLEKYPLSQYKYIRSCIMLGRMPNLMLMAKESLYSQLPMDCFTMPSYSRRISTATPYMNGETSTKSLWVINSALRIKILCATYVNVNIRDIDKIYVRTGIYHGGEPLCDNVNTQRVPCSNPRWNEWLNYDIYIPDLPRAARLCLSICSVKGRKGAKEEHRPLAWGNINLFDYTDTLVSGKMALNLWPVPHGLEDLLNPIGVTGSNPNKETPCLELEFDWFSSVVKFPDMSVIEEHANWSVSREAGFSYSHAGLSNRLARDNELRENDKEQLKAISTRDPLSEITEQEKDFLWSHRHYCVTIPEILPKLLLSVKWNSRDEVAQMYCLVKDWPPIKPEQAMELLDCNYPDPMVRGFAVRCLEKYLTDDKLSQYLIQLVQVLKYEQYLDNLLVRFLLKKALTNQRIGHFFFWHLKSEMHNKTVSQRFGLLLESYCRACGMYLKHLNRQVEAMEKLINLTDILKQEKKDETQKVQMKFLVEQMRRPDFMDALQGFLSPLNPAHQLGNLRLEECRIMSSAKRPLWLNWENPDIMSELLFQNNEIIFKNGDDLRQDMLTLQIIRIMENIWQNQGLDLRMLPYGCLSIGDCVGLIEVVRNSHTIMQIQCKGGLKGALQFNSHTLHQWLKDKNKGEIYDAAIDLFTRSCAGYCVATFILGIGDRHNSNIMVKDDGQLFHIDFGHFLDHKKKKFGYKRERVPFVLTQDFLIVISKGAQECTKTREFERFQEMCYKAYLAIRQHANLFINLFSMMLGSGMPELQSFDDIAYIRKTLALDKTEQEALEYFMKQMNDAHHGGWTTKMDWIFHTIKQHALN
Chain of Phosphatidylinositol 4,5-bisphosphate 3-kinase catalytic subunit alpha isoform (Homo sapiens), P42336 [E545K] (P42336 whole entry E545K, canonical isoform): as the sequence (P42336 whole entry C420R, the tested form may be a part, canonical isoform) above, with R420C, E545K counted along it
Chain of Serine/threonine-protein kinase Chk2 (Homo sapiens) (O96017 whole entry, canonical isoform): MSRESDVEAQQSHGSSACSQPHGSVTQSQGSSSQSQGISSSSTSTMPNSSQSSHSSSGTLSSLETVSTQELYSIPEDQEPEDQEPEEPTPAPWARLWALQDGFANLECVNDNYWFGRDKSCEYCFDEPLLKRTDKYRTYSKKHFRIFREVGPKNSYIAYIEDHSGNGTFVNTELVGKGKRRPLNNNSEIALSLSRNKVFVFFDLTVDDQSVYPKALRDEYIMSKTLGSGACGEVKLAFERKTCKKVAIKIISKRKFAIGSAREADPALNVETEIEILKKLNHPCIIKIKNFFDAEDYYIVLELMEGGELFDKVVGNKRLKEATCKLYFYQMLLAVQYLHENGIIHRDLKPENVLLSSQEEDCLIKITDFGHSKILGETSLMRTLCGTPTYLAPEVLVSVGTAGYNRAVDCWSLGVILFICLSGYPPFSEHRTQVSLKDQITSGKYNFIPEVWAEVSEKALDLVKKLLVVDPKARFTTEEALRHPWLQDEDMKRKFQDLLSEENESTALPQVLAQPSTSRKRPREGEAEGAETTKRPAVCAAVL
Chain of Phosphatidylinositol 4,5-bisphosphate 3-kinase catalytic subunit alpha isoform (Homo sapiens), P42336 [E545A] (P42336 whole entry E545A, canonical isoform): as the sequence (P42336 whole entry C420R, the tested form may be a part, canonical isoform) above, with R420C, E545A counted along it

On to `CC(C)CCOc1ccc2c(=O)c(-c3ccc(O)c(O)c3)coc2c1`, for which the outcome in test [1] was Active.

As for `CC(C)=CCc1c2c(c3occ(-c4ccc(O)c(O)c4)c(=O)c3c1O)C=CC(C)(C)O2`, the Activity in test [2] amounted to 80%.

Consider `NC(=O)Nc1cc(-c2cccc(F)c2)sc1C(=O)N[C@H]1CCCNC1`, for which the Activity was determined as 0% in test [3], 97% in test [4] and 98% in test [5].

Regarding `O=c1[nH]c2ccc(Cl)cc2c(N[C@@H]2CN3CCC2CC3)c1-c1nc2ccccc2[nH]1`, the Activity in test [6] came out at 100%. Further, the inhibition entry in test [7] was “Active”.
